From ChEMBL document CHEMBL1159382, “New antimalarial bis-dehydroaporphine alkaloids from Polyalthia debilis” (J Nat Prod, 2003)
Converted amounts (≈) assume the structure as drawn.

Test system: Plasmodium falciparum
Assay: Antimalarial activity against multidrug-resistant Plasmodium falciparum K1 by [3H]hypoxanthine uptake
Assay type: functional, organism-based

Structure (SMILES) | IC50 [µg/mL]
COc1ccc2c(-c3c4c5c(cc6c(c5c5cc(OC)ccc35)OCO6)CCN4)c3c4c(cc5c(c4c2c1)OCO5)CCN3 [BIDEBILINE D] | 4.1 (≈ 7.01 µM)
COc1cccc2c1c(-c1c3c4c(cc5c(c4c4cccc(OC)c14)OCO5)CCN3)c1c3c(cc4c(c32)OCO4)CCN1 [BIDEBILINE C] | 5.4 (≈ 9.24 µM)
C[C@@H]1CC[C@H]2[C@@H](C)C(=O)O[C@@H]3O[C@@]4(C)CC[C@@H]1[C@]32OO4 [ARTEMISININ] | 0.001 (≈ 0.00354 µM)
